11 compounds from the Kinase Knowledgebase extract (Sharma et al. 2016) can be followed below.

Molecules are shown by their SMILES. A value given as a limit tells only on which side of the number the result lay.

Sequence of EGFR (human) (P00533 whole entry, looked up): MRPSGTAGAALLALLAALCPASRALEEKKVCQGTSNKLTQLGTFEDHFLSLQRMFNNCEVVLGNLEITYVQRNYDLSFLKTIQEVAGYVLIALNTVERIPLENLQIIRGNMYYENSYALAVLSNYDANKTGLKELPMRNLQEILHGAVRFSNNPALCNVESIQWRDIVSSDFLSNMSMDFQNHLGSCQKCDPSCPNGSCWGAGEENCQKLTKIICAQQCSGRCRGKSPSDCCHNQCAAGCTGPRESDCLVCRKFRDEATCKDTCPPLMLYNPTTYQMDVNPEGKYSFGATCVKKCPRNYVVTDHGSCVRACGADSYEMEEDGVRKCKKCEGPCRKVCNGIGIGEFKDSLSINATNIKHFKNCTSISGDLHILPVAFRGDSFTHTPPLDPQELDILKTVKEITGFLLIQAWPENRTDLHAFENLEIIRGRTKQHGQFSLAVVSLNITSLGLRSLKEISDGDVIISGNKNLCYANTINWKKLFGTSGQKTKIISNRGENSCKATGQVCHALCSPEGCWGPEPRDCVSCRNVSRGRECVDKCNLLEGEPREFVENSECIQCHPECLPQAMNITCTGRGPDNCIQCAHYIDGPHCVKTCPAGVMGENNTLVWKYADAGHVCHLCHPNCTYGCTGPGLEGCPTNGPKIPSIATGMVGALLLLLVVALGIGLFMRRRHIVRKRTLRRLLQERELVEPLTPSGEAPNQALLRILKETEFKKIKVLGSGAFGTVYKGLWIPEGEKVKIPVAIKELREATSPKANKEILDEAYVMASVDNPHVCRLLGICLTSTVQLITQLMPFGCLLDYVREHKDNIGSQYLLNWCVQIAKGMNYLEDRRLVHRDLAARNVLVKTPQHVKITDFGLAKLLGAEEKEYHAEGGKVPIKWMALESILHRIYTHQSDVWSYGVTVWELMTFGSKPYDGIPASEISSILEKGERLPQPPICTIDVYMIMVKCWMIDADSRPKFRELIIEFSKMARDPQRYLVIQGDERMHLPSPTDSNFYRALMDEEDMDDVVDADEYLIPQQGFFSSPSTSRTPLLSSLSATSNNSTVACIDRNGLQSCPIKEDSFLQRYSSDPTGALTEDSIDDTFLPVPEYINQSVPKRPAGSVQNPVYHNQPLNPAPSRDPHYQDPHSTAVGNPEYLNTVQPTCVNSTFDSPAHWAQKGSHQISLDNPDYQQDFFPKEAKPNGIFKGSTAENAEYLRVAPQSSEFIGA

The target in one assay is CDK2 (human) (UniProt P24941). Nature of the assay: Enzyme Assay.
Conditions: not given
With `Cc1nc(NN2C(=O)C(=Cc3ccccc3)SC2=S)nc(-c2ccc(O)cc2O)c1C(=O)Nc1cccc([N+](=O)[O-])c1`, the concentration for half-maximal inhibition (IC50) (as a rule, the concentration that gives 50% inhibition) came out at 28.2 µM.
The compound `CC1=CN(c2nc(C)c(C(=O)Nc3cccc([N+](=O)[O-])c3)c(-c3ccc(O)cc3O)n2)C(=O)C1=Cc1ccco1` yielded an IC50 of 10.3 µM.
With `CC1=CN(c2nc(C)c(C(=O)Nc3cccc([N+](=O)[O-])c3)c(-c3ccc(O)cc3O)n2)C(=O)C1=Cc1cccs1`, the IC50 turned out to be 3.1 µM.
Compound `Cc1nc(NN=Cc2ccco2)nc(-c2ccc(O)cc2O)c1C(=O)Nc1cccc([N+](=O)[O-])c1` displayed a concentration for half-maximal inhibition (IC50) of 3.8 µM.
Turning to `Cc1nc(NN)nc(-c2ccc(O)cc2O)c1C(=O)Nc1cccc([N+](=O)[O-])c1`, the IC50 was > 100 µM.
Consider `Cc1nc(NN2C(=O)C(=Cc3ccco3)SC2=S)nc(-c2ccc(O)cc2O)c1C(=O)Nc1cccc([N+](=O)[O-])c1`, for which the IC50 was found to be 0.4 µM.
`Cc1nc(NN2C(=O)C(=Cc3cccs3)SC2=S)nc(-c2ccc(O)cc2O)c1C(=O)Nc1cccc([N+](=O)[O-])c1` showed an IC50 of 0.3 µM.
`Cc1nc(NN=Cc2cccs2)nc(-c2ccc(O)cc2O)c1C(=O)Nc1cccc([N+](=O)[O-])c1` registered a concentration for half-maximal inhibition (IC50) of 22.9 µM.

The next assay addresses EGFR (human) (UniProt P00533).
Test: not given
Conditions: not given
For `Cc1nc(NN2C(=O)C(=Cc3ccccc3)SC2=S)nc(-c2ccc(O)cc2O)c1C(=O)Nc1cccc([N+](=O)[O-])c1`, the 50% inhibitory concentration (IC50) was > 100 µM.
Turning to `CC1=CN(c2nc(C)c(C(=O)Nc3cccc([N+](=O)[O-])c3)c(-c3ccc(O)cc3O)n2)C(=O)C1=Cc1ccco1`, the IC50 was > 100 µM.
As to `CC1=CN(c2nc(C)c(C(=O)Nc3cccc([N+](=O)[O-])c3)c(-c3ccc(O)cc3O)n2)C(=O)C1=Cc1cccs1`, the IC50 is > 100 µM.
`Clc1cccc(Nc2ncnc3cc4c(cc23)OCCO4)c1` yielded an IC50 of 0.0008 µM. This lies in the sub-nanomolar range.
With `Cc1nc(NN=Cc2ccco2)nc(-c2ccc(O)cc2O)c1C(=O)Nc1cccc([N+](=O)[O-])c1`, the 50% inhibitory concentration (IC50) is > 100 µM.
`Cc1nc(NN)nc(-c2ccc(O)cc2O)c1C(=O)Nc1cccc([N+](=O)[O-])c1` gave an IC50 of 47.9 µM.
The compound `Cc1nc(NN2C(=O)C(=Cc3ccco3)SC2=S)nc(-c2ccc(O)cc2O)c1C(=O)Nc1cccc([N+](=O)[O-])c1` showed an IC50 of 99.3 µM.
The compound `Cc1nc(NN2C(=O)C(=Cc3cccs3)SC2=S)nc(-c2ccc(O)cc2O)c1C(=O)Nc1cccc([N+](=O)[O-])c1` gave a concentration for half-maximal inhibition (IC50) of 80.6 µM.
On the same count and under the same terms, with `Cc1nc(NN=Cc2cccs2)nc(-c2ccc(O)cc2O)c1C(=O)Nc1cccc([N+](=O)[O-])c1` the figure was > 100 µM.

The target of another assay is CDK2 (human) (UniProt P24941). Description: Cell-Based Assay. The conditions noted are these: a431.
On to `Cc1nc(NN2C(=O)C(=Cc3ccccc3)SC2=S)nc(-c2ccc(O)cc2O)c1C(=O)Nc1cccc([N+](=O)[O-])c1`, for which the 50% growth inhibitory concentration (GI50) – broadly, the concentration giving 50% growth inhibition – is 24.3 µM. This lies in the double-digit micromolar range.
`CC1=CN(c2nc(C)c(C(=O)Nc3cccc([N+](=O)[O-])c3)c(-c3ccc(O)cc3O)n2)C(=O)C1=Cc1ccco1` had a GI50 of 15.8 µM. Against the preceding compound, the GI50 is about 1.5-fold lower.
`CC1=CN(c2nc(C)c(C(=O)Nc3cccc([N+](=O)[O-])c3)c(-c3ccc(O)cc3O)n2)C(=O)C1=Cc1cccs1` displayed a GI50 of 37.1 µM.
Take `Cc1nc(NN=Cc2ccco2)nc(-c2ccc(O)cc2O)c1C(=O)Nc1cccc([N+](=O)[O-])c1`: the GI50 turned out to be 2.91 µM.
For the compound `Cc1nc(NN)nc(-c2ccc(O)cc2O)c1C(=O)Nc1cccc([N+](=O)[O-])c1`, the GI50 stood at 24.3 µM. This GI50 is about 8.4-fold higher than that of the compound before.
Still for that read-out and setting: the value for `CC1=C(C(=O)Nc2cccc([N+](=O)[O-])c2)C(c2ccc(O)cc2O)NC(SCc2ccccc2)=N1` (stereo not given) was > 100 µM; that for `Cc1nc(NN2C(=O)C(=Cc3ccco3)SC2=S)nc(-c2ccc(O)cc2O)c1C(=O)Nc1cccc([N+](=O)[O-])c1` was 28.9 µM; that for `Cc1nc(NN2C(=O)C(=Cc3cccs3)SC2=S)nc(-c2ccc(O)cc2O)c1C(=O)Nc1cccc([N+](=O)[O-])c1` was 2.78 µM.
`Cc1nc(NN=Cc2cccs2)nc(-c2ccc(O)cc2O)c1C(=O)Nc1cccc([N+](=O)[O-])c1` yielded a GI50 of 19.1 µM.

Still in this assay, the particulars now being: hct 116.
Compound `Cc1nc(NN2C(=O)C(=Cc3ccccc3)SC2=S)nc(-c2ccc(O)cc2O)c1C(=O)Nc1cccc([N+](=O)[O-])c1` yielded a GI50 of 16.6 µM.
The same measure, in the same setting: with `CC1=CN(c2nc(C)c(C(=O)Nc3cccc([N+](=O)[O-])c3)c(-c3ccc(O)cc3O)n2)C(=O)C1=Cc1ccco1` the figure was > 100 µM.
In the case of `CC1=C(C(=O)Nc2cccc([N+](=O)[O-])c2)C(c2ccc(O)cc2O)NC(NCc2ccccc2)=N1` (stereo not given), the GI50 was > 100 µM.
In turn, `CC1=CN(c2nc(C)c(C(=O)Nc3cccc([N+](=O)[O-])c3)c(-c3ccc(O)cc3O)n2)C(=O)C1=Cc1cccs1` gave a GI50 of 26.5 µM. That is a double-digit micromolar value.
With `Cc1nc(NN=Cc2ccco2)nc(-c2ccc(O)cc2O)c1C(=O)Nc1cccc([N+](=O)[O-])c1`, the GI50 is 8.89 µM.
On the same count and under the same terms, with `Cc1nc(NN)nc(-c2ccc(O)cc2O)c1C(=O)Nc1cccc([N+](=O)[O-])c1` the figure was 47.7 µM; with `Cc1nc(NN2C(=O)C(=Cc3ccco3)SC2=S)nc(-c2ccc(O)cc2O)c1C(=O)Nc1cccc([N+](=O)[O-])c1`, > 100 µM.
The same measure, in the same setting: the value for `Cc1nc(NN2C(=O)C(=Cc3cccs3)SC2=S)nc(-c2ccc(O)cc2O)c1C(=O)Nc1cccc([N+](=O)[O-])c1` was 4.5 µM.
Turning to `Cc1nc(NN=Cc2cccs2)nc(-c2ccc(O)cc2O)c1C(=O)Nc1cccc([N+](=O)[O-])c1`, the GI50 was 38.2 µM.
